Experimental findings from US12624024B2, “EP2 antagonist compounds” (Reservoir Neuroscience, Inc., priority 2021, dated 2026) are described below.

SMILES strings stand for the structures.

For this assay, the target named is T1, EP2 receptor (Homo sapiens, UniProt P43116).
T1 construct: expressed in transfected cells; host or cells: CHO-K1 cells (ATCC), transient transfection with FuGENE 6
T1 sequence (P43116 whole entry): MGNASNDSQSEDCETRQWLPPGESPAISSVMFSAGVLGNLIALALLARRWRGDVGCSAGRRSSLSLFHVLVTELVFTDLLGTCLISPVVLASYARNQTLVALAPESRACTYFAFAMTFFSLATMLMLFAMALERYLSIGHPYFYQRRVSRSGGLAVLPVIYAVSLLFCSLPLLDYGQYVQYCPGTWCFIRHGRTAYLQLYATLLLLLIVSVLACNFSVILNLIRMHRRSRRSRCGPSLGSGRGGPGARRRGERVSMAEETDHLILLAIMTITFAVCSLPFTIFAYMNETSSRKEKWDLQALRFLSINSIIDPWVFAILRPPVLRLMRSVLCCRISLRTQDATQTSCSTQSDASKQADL
As to the kind of experiment: EP2 Potency Assay (cAMP TR-FRET, CHO-K1 cells transfected with EP2 receptor, PGE2 at EC80). To be noted: CHO-K1 cells expressing EP2, prostaglandin E2 at EC80, read-out: EP2 Potency (IC50 category). The format is cell-based. The method, then:
Compound potency was measured using a cAMP TR-FRET assay.
After 6 hours incubation, the cell media was replaced with F12 medium supplemented with 10% FBS and 100 U/ml Pen-Strep. 24 hours after transfection, cells were harvested and seeded at a density of 3000 cells/well in a 384 well plate to perform the cAMP assay, using the LANCE Ultra cAMP assay kit (PerkinElmer).
Plates were then centrifuged at 1000 rpm for 1 min, agitated at 600 rpm at R.T. for 2 min, and incubated at 25° C. for 5 min. The reference agonist, prostaglandin E2 (MCE), was added to each well at the appropriate concentration to reach its EC80 value. Plates were then centrifuged at 1000 rpm for 1 min, agitated at 600 rpm at R.T. for 2 min, and incubated at 25° C. for 30 min.
A dose-response curve was prepared by plotting percent inhibition for each compound concentration, and then IC50 was calculated by fitting a curve to the plotted values and extrapolating the IC50 concentration.
What is called IC50 is the concentration that inhibits the measured activity by half. Consider `COc1ncc(CN2CCOc3c(Cl)cc(N4CCOc5cc(F)ccc54)cc3C2)cn1` [Compound 51, 9-chloro-7-(7-fluoro-2,3-dihydro-1,4-benzoxazin-4-yl)-4-[(2-methoxypyrimidin-5-yl)methyl]-3,5-dihydro-2H-1,4-benzoxazepine], for which the half-maximal inhibitory concentration (IC50) was more than 5 µM.

On to `N#Cc1cccc(CN2Cc3cc(-n4ccc5cc(F)ccc54)cc(Cl)c3OCC23CC3)c1` [Compound 220], for which the IC50 is more than 5 µM.

For the compound `CC1c2cc(-n3ccc4cc(F)ccc43)cc(Cl)c2OCCN1Cc1cc[nH]c(=O)c1` (centres unmarked) [Compound 235], the concentration for half-maximal inhibition (IC50) fell in the range of 0.5 to 1 µM.

For `COc1ncc(CN2CCOc3c(Cl)cc(-n4ccc5c(F)c(Cl)ccc54)cc3C2)cn1` [Compound 26], the IC50 was in the range of 0.5 to 1 µM.

For `COC(=O)c1cc(CN2CCOc3c(Cl)cc(-n4ccc5cc(F)ccc54)cc3C2)ccn1` [Compound 186], the IC50 is 0.1 to 0.5 µM.

As for `COc1ncc(CN2CCOc3c(Cl)cc(-n4ccc5cc(C(F)(F)F)ccc54)cc3C2)cn1` [Compound 15], the 50% inhibitory concentration (IC50) is more than 5 µM.

On to `Fc1ccc2c(ccn2-c2cc(Cl)c3c(c2)CN(Cc2cnsn2)CCO3)c1` [Compound 113], for which the half-maximal inhibitory concentration (IC50) was 1 to 5 µM.

In the case of `Fc1ccc2c(ccn2-c2cc(Cl)c3c(c2)CN(Cc2ccnc(Cl)c2C(F)(F)F)CCO3)c1` [Compound 192], the IC50 fell in the range of 0.1 to 0.5 µM.

With `COc1cc(CN2CCOc3c(Cl)cc(-n4ccc5cc(F)ccc54)cc3C2)cc(OC)n1` [Compound 197], the half-inhibitory concentration (IC50) was more than 5 µM.

On to `COCC1COc2c(Cl)cc(-n3ccc4cc(F)ccc43)cc2CN1Cc1cc[nH]c(=O)c1` (centres unmarked) [Compound 239], for which the half-maximal inhibitory concentration (IC50) fell in the range of 1 to 5 µM.

Consider `OCc1cc(CN2CCOc3c(Cl)cc(-n4ccc5cc(F)ccc54)cc3C2)ccn1` [Compound 183], for which the 50% inhibitory concentration (IC50) lay within 0.1 to 0.5 µM.

With `O=c1ncc(CN2CCOc3c(Cl)cc(-n4ccc5cccnc54)cc3C2)c[nH]1` [Compound 69], the half-inhibitory concentration (IC50) was more than 5 µM.

Take `Fc1ccc2c(ccn2-c2cc(Cl)c3c(c2)CN(Cc2ccnc(NC4COC4)c2)CCO3)c1` [Compound 182, 4-{[9-chloro-7-(5-fluoroindol-1-yl)-3,5-dihydro-2H-1,4-benzoxazepin-4-yl]methyl}-N-(oxetan-3-yl)pyridin-2-amine]: the half-maximal inhibitory concentration (IC50) was 1 to 5 µM.

For `Fc1ccc2c(ccn2-c2cc(Cl)c3c(c2)CN(Cc2ccnc(C4CNC4)c2)CCO3)c1` [Compound 188, 4-{[2-(azetidin-3-yl)pyridin-4-yl]methyl}-9-chloro-7-(5-fluoroindol-1-yl)-3,5-dihydro-2H-1,4-benzoxazepine; trifluoroacetic acid], the half-inhibitory concentration (IC50) was more than 5 µM.

Regarding `Cc1cc2cc(F)ccc2n1-c1cc(Cl)c2c(c1)CN(Cc1cnc(=O)[nH]c1)CCO2` [Compound 66], the concentration for half-maximal inhibition (IC50) lay in the range of 1 to 5 µM.

Consider `CC(c1cc[nH]c(=O)c1)N1CCOc2c(Cl)cc(-n3ccc4cc(F)ccc43)cc2C1` (centres unmarked) [Compound 228], for which the IC50 is more than 5 µM.

As for `COc1ncc(CN2CCOc3c(Cl)cc(N4Cc5ccc(F)cc5C4)cc3C2)cn1` [Compound 47, 9-chloro-7-(5-fluoro-1,3-dihydroisoindol-2-yl)-4-[(2-methoxypyrimidin-5-yl)methyl]-3,5-dihydro-2H-1,4-benzoxazepine], the IC50 fell in the range of 1 to 5 µM.

In the case of `Fc1ccc2c(ccn2-c2cc(Cl)c3c(c2)CN(Cc2ccccc2C(F)F)CCO3)c1` [Compound 122, 9-chloro-4-(2-(difluoromethyl)benzyl)-7-(5-fluoro-1H-indol-1-yl)-2,3,4,5-tetrahydrobenzo[f][1,4]oxazepane], the half-maximal inhibitory concentration (IC50) was more than 5 µM.

Take `O=c1ncc(CN2CCOc3c(Cl)cc(N4CCCc5cc(F)ccc54)cc3C2)c[nH]1` [Compound 80]: the IC50 was in the range of 1 to 5 µM.

Take `CNC(=O)[C@H]1CC[C@H](CN2CCOc3c(Cl)cc(-n4ccc5cc(F)ccc54)cc3C2)CC1` [Compound 127, trans-4-{[9-chloro-7-(5-fluoroindol-1-yl)-3,5-dihydro-2H-1,4-benzoxazepin-4-yl]methyl}-N-methylcyclohexane-1-carboxamide]: the concentration for half-maximal inhibition (IC50) lay within 0.5 to 1 µM.

As to `Fc1ccc2c(ccn2-c2cc(Cl)c3c(c2)CN(Cc2cccs2)CCO3)c1` [Compound 91], the IC50 was more than 5 µM.

Regarding `Fc1ccc2c(ccn2-c2cc(Cl)c3c(c2)CN(Cc2nnco2)CCO3)c1` [Compound 111, 9-chloro-7-(5-fluoroindol-1-yl)-4-(1,3,4-oxadiazol-2-ylmethyl)-3,5-dihydro-2H-1,4-benzoxazepine], the IC50 was in the range of 1 to 5 µM.

Regarding `NCc1ncc(CN2CCOc3c(Cl)cc(-n4ccc5cc(F)ccc54)cc3C2)cn1` [Compound 139, 1-(5-{[9-chloro-7-(5-fluoroindol-1-yl)-3,5-dihydro-2H-1,4-benzoxazepin-4-yl]methyl}pyrimidin-2-yl)methanamine], the IC50 lay in the range of 0.1 to 0.5 µM.

Take `O=c1ncc(CN2CCOc3c(Cl)cc(-n4ccc5ncccc54)cc3C2)c[nH]1` [Compound 68]: the IC50 was in the range of 0.5 to 1 µM.

`COc1ncccc1CN1CCc2c(Cl)cc(-n3ccc4cc(F)ccc43)cc2C1` [Compound 223]: the IC50 was more than 5 µM.

On to `Fc1ccc2c(ccn2-c2cc(Cl)c3c(c2)CN(Cc2nn[nH]n2)CCO3)c1` [Compound 118, 9-chloro-7-(5-fluoroindol-1-yl)-4-(2H-1,2,3,4-tetrazol-5-ylmethyl)-3,5-dihydro-2H-1,4-benzoxazepine], for which the half-maximal inhibitory concentration (IC50) is more than 5 µM.

Take `Fc1ccc2c(ccn2-c2cc(Cl)c3c(c2)CN(Cc2cc[nH]c2)CCO3)c1` [Compound 86]: the concentration for half-maximal inhibition (IC50) was more than 5 µM.

Consider `Fc1ccc2c(ccn2-c2cc(Cl)c3c(c2)CN(Cc2cncs2)CCO3)c1` [Compound 99], for which the IC50 was 0.5 to 1 µM.

Regarding `Fc1ccc2c(ccn2-c2cc(Cl)c3c(c2)CN(Cc2ccc[nH]2)CCO3)c1` [Compound 87], the IC50 was more than 5 µM.

With `CC(C)(C)OC(=O)Nc1cnc(CN2CCOc3c(Cl)cc(-n4ccc5cc(F)ccc54)cc3C2)cn1` [Compound 171], the IC50 is more than 5 µM.

Regarding `Fc1ccc2c(ccn2-c2cc(Cl)c3c(c2)CN(Cc2cc[nH]n2)CCO3)c1` [Compound 101], the IC50 was more than 5 µM.

Take `COc1ncc(CN2CCOc3c(Cl)cc(N4CCSc5ccccc54)cc3C2)cn1` [Compound 52]: the IC50 was more than 5 µM.

For the compound `Cn1ccc(CN2CCOc3c(Cl)cc(-n4ccc5cc(F)ccc54)cc3C2)n1` [Compound 102], the IC50 was more than 5 µM.

`Cc1cn(-c2cc(Cl)c3c(c2)CN(Cc2cnc(=O)[nH]c2)CCO3)c2ccc(F)cc12` [Compound 67]: the IC50 was 0.1 to 0.5 µM.

As to `Nc1cc(CN2CCOc3c(Cl)cc(-n4ccc5cc(F)ccc54)cc3C2)ccn1` [Compound 179, 4-{[9-chloro-7-(5-fluoroindol-1-yl)-3,5-dihydro-2H-1,4-benzoxazepin-4-yl]methyl}pyridin-2-amine], the 50% inhibitory concentration (IC50) lay within 1 to 5 µM.

Take `O=c1ncc(CN2CCOc3c(Cl)cc(-c4cccc5nccn45)cc3C2)c[nH]1` [Compound 74]: the IC50 was 1 to 5 µM.

Consider `COc1ncc(CN2CCOc3c(Cl)cc(-c4coc5ccccc45)cc3C2)cn1` [Compound 56], for which the half-inhibitory concentration (IC50) lay within 1 to 5 µM.

As for `O=c1ncc(CN2CCOc3c(Cl)cc(-n4ccc5nccnc54)cc3C2)c[nH]1` [Compound 76, 5-[(9-chloro-7-{pyrrolo[2,3-b]pyrazin-5-yl}-3,5-dihydro-2H-1,4-benzoxazepin-4-yl)methyl]-1H-pyrimidin-2-one trifluoroacetic acid], the IC50 was more than 5 µM.

Consider `N#Cc1ccc2c(ccn2-c2cc(Cl)c3c(c2)CN(Cc2cnc(=O)[nH]c2)CCO3)c1` [Compound 59], for which the IC50 lay within 1 to 5 µM.

For `Fc1ccc2c(ccn2-c2cc(Cl)c3c(c2)CN(Cc2cncnc2)C2(CC2)CO3)c1` [Compound 218], the IC50 is more than 5 µM.

In the case of `Fc1ccc2c(ccn2-c2cc(Cl)c3c(c2)CN(Cc2cnc[nH]2)CCO3)c1` [Compound 107], the IC50 was more than 5 µM.

Take `COc1ncc(CN2CCOc3c(Cl)cc(-c4ncc5ccccn45)cc3C2)cn1` [Compound 40, 9-chloro-7-{imidazo[1,5-a]pyridin-3-yl}-4-[(2-methoxypyrimidin-5-yl)methyl]-3,5-dihydro-2H-1,4-benzoxazepine]: the IC50 was in the range of 1 to 5 µM.

Take `[2H]C1([2H])Oc2c(Cl)cc(-n3ccc4cc(F)ccc43)cc2CN(Cc2cc[nH]c(=O)c2)C1([2H])[2H]` [Compound 227]: the 50% inhibitory concentration (IC50) is less than 0.1 µM.

For the compound `CN(C)c1cc(CN2CCOc3c(Cl)cc(-n4ccc5cc(F)ccc54)cc3C2)ccn1` [Compound 181, 4-{[9-chloro-7-(5-fluoroindol-1-yl)-3,5-dihydro-2H-1,4-benzoxazepin-4-yl]methyl}-N,N-dimethylpyridin-2-amine], the IC50 lay within 1 to 5 µM.

Turning to `COC(=O)[C@H]1CC[C@H](CN2CCOc3c(Cl)cc(-n4ccc5cc(F)ccc54)cc3C2)CC1` [Compound 133], the IC50 is more than 5 µM.

`CC(C)(C)OC(=O)n1cccc1CN1CCOc2c(Cl)cc(-n3ccc4cc(F)ccc43)cc2C1` [Compound 88]: the 50% inhibitory concentration (IC50) is more than 5 µM.

For the compound `COc1ncc(CN2CCOc3c(Cl)cc(-n4ccc5cc(F)cnc54)cc3C2)cn1` [Compound 33, 9-chloro-7-(5-fluoro-1H-pyrrolo[2,3-b]pyridin-1-yl)-4-((2-methoxypyrimidin-5-yl)methyl)-2,3,4,5-tetrahydrobenzo[f][1,4]oxazepine], the IC50 was 1 to 5 µM.

Turning to `O=c1ncc(CN2CCOc3c(Cl)cc(-c4cccc5c4OCCO5)cc3C2)c[nH]1` [Compound 85], the concentration for half-maximal inhibition (IC50) is more than 5 µM.

On to `O=c1cc(CN2CCOc3c(Cl)cc(-n4ccc5cc(F)ccc54)cc32)cc[nH]1` [Compound 241], for which the IC50 was more than 5 µM.

`COc1ncc(CN2CCOc3c(Cl)cc(-n4ccc5nc(Cl)ccc54)cc3C2)cn1` [Compound 38]: the 50% inhibitory concentration (IC50) lay in the range of 1 to 5 µM.
